Publication PMC6669608, “Evaluation of Oxasqualenoids from the Red Alga Laurencia viridis against Acanthamoeba” (Marine Drugs, 2019)

Assays:
A. castellanii Neff [1] = assay: Double-stain assay (Hoechst 33342/PI) for programmed cell death; assay type: cell-based, Acanthamoeba castellanii Neff; details: IC90, 24 h
Protocol: A double-stain apoptosis detection kit (Hoechst 33342/PI) (GenScript, Piscataway, NJ, USA) and an EVOS FL Cell Imaging System AMF4300 (Life Technologies, Carlsbad, CA, USA) were used. The experiment was carried out by following the manufacturer’s recommendations, and 10^5 cells/well were incubated in a 24-well plate for 24 h with the previously calculated IC90. The double-staining pattern allows the identification of three groups in a cellular population: live cells will show only a low level of fluorescence, cells undergoing programmed cell death (PCD) will show a higher level of blue fluorescence (as chromatin condenses), and dead cells will show low-blue and high-red fluorescence (as the propidium iodide stain enters the nucleus).

[2] = system: Acanthamoeba castellanii Neff trophozoites; assay: In vitro activity against Acanthamoeba trophozoites (alamarBlue colorimetric assay); assay type: cell-based, Acanthamoeba castellanii Neff (ATCC 30010); details: 42.5 µM (25 µg/mL)
A. castellanii Neff [3] = assay: Intracellular ROS production (CellROX Deep Red); assay type: cell-based, Acanthamoeba castellanii Neff; details: IC90, 24 h
Protocol: Generation of intracellular ROS was detected using the CellROX® Deep Red fluorescent probe (Invitrogen, Thermo Fisher Scientific Inc., Waltham, MA, USA). The cells were treated with IC90 of DT for 24 h and exposed to CellROX® Deep Red (5 μM, 30 min) at 26 °C in the dark.

[4] = Cytotoxicity assay (alamarBlue); assay type: cell-based, murine; details: mouse; 24 h, 37 °C; read-out: CC50, toxicity against murine macrophage J774.A1
Protocol: The antiamoeboid activity of the compounds was evaluated against Acanthamoeba castellanii Neff (ATCC 30010) type strain from the American Type Culture Collection. This strain was axenically incubated in PYG medium (0.75% (w/v) proteose Peptone, 0.75% (w/v) Yeast extract, and 1.5% (w/v) Glucose) supplemented with 10 µg/mL gentamicin (Sigma-Aldrich, Madrid, Spain). As for the cytotoxicity assays, murine macrophages J774A.1 (ATCC TIB-67) were used, cultivated in DMEM medium (Dulbecco’s modified eagle medium, Gibco Life Technologies, California, USA) with 10% supplement of fetal bovine serum (FBS) and 10 µg/mL gentamicin at 37 °C in a 5% CO2 incubator.
The cytotoxicity of the tested compounds was determined in vitro with murine macrophages (J774A.1). For this assay, the DMEM culture medium was changed from RPMI without phenol red (Roswell Park Memorial Institute, Thermo Fisher Scientific Inc., Waltham, MA, USA) to L-Glutamine supplemented with 10% (v/v) inactivated FBS and with 10 µg/mL gentamicin. In this assay, the macrophages were counted and seeded into a 96-well microtiter plate, adding 50 µL to each well from a stock solution of 2 × 10^5 cells/mL. Cells were then left to adhere for 15 min to the plate bottom and were checked with the inverted microscope Leica DMIL. After that, 50 µL of a serial dilution of the compounds was added to the 96-well microtiter plate. Finally, alamarBlue™ was added into each well at an amount equal to 10% of the final volume and incubated at 37 °C in the presence of CO2 at 5% for 24 h. After this period of time, as in the in vitro anti-Acanthamoeba assay, the fluorescence was determined with an EnSpire Multimode Plate Reader (PerkinElmer, Inc, Waltham, MA, USA) at a wavelength of 570/585 nm. The cytotoxicity concentration to inhibit the growth of 50% of murine macrophages (CC50) was calculated through nonlinear regression analysis with 95% confidence limits using the software Sigma Plot 12.0 (Systat Software, Inc, San Jose, CA 95110 USA). Experiments were performed three times each, allowing for standard deviation.

A. castellanii = assay: Measurement of ATP levels (CellTiter-Glo); assay type: cell-based, Acanthamoeba castellanii; details: IC90, 24 h
Protocol: The ATP level was measured using a Cell Titer-Glo® Luminescent Cell Viability Assay (Promega, Alcobendas, Madrid). This required adding a single reagent (CellTiter-Glo® Reagent, Promega, Alcobendas, Madrid), which relies on the properties of a proprietary thermostable luciferase, generating a stable proportional luminescent signal to the amount of ATP present, which is directly proportional to the number of cells present in culture. After incubation, treated amoebas were mixed with the kit reagent into a white-wall 96-well microtiter plate (Nunc; Thermo Fisher Scientific Inc., Waltham, MA, USA) following the manufacturer’s instructions for measurement of the luminescence on a PerkinElmer spectrophotometer. The effect of the drug on the ATP production was evaluated by incubating 10^5 cells/mL with the previously calculated IC90 of DT following the manufacturer´s recommendations. As a negative control, an A. castellanii culture incubated with PYG medium was used.

[5] = system: Acanthamoeba castellanii Neff cysts; assay: In vitro activity against Acanthamoeba castellanii Neff cysts (alamarBlue); assay type: cell-based; details: 168 h, mature cysts, 7 d incubation, read-out: IC50, cysticidal activity against A. castellanii Neff
Protocol: The cysticidal activity of DT was determined by the alamarBlue™ assay and confirmed visually by inverted microscopy. Cysts of A. castellanii Neff were prepared as previously described. Briefly, trophozoites were transferred from PYG medium based cultures (trophozoite medium) to Neff’s encystment medium (NEM; 0.1 M KCl, 8 mM MgSO4·7H2O, 0.4 mM CaCl2·2H2O, 1 mM NaHCO3, 20 mM ammediol (2-amino-2-methyl-1,3-propanediol; Sigma Aldrich, Madrid, Spain), pH 8.8 at 25 °C) and were cultured in this medium with gentle shaking for a week in order to obtain mature cysts. After that, mature cysts were harvested and washed twice using PYG medium.
A serial dilution of the tested molecules was made in PYG. The in vitro susceptibility assay was performed in sterile 96-well microtiter plates (Corning™). To these wells, containing 50 µL of drug dilutions, 5 × 10^4 mature cysts of Acanthamoeba/mL were added. After 7 d of incubation with the drugs, the plate was centrifuged at 3000 rpm for 10 min. The supernatant was removed and replaced with 100 µL of fresh PYG medium in each well. Finally, 10 μL of the Alamar Blue Assay Reagent (Biosource, Europe, Nivelles, Belgium) was placed into each well, and the plates were then incubated for 144 h at 28 °C. The emitted fluorescence was periodically examined with an Enspire microplate reader (PerkinElmer, Waltham, MA, USA) at 570/585 nm.

[6] = system: A. castellanii Neff trophozoites; assay: Plasma membrane permeability (SYTOX Green); assay type: cell-based, Acanthamoeba castellanii Neff; details: IC90, 24 h
Protocol: The SYTOX Green assay was performed to detect alterations of the membrane permeability in treated cells. Briefly, 10^5 trophozoites were washed and incubated in saline solution with the SYTOX Green at a final concentration of 1 μM (Molecular Probes) for 15 min in the dark. Subsequently, DT solution was added (IC90).

C=C(CC[C@H](O)[C@@]1(C)CC[C@H](C(C)(C)O)O1)[C@H]1CC[C@H]2O[C@@H]([C@]3(C)CC[C@@H](Br)C(C)(C)O3)CC[C@]2(C)O1 [Compound 1, dehydrothyrsiferol]
chromatin condensation (Hoechst 33342/propidium iodide double stain) (A. castellanii Neff [1]): induce chromatin condensation | inhibitory effect on the growth of A. castellanii trophozoites (microscopy) [2]: many of the treated cells were dead | reactive oxygen species (ROS) levels (A. castellanii Neff [3]): increased levels of ROS | CC50 [4]: 28.8 ± 3.1 µM | ATP level maintained after treatment (A. castellanii): 19.52% | decrease in the total ATP level in comparison to the negative control (A. castellanii): 80.48% | IC50 [5]: 39.27 ± 0.14 µM | plasma membrane permeability (SYTOX Green) [6]: showed plasmatic membrane damage
